# Reference: ChEMBL document CHEMBL1909294, “Translating clinical findings into knowledge in drug safety evaluation--drug induced liver injury prediction system (DILIps)” (PLoS Comput Biol, 2011)
# Legend:
# [1] = system: Hepatotoxicity;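 as to HepSE cholecystitis: Cholecystitis-related hepatic side effect score drawn from the DILIps (drug-induced liver injury prediction) training data set; call rule not given here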;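 as to HepSE cholelithiasis: hepatic side effect score for cholelithiasis, drawn from the DILIps training data for predicting drug-induced liver injury; call rule not given here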;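 as to HepSE cirrhosis: cirrhosis hepatic side effect score taken from the DILIps (drug-induced liver injury prediction) training set; call rule not given here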;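 as to HepSE elevated liver function tests: hepatic side effect score for raised liver function tests, as recorded in the DILIps training set used for predicting drug-induced liver injury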; as to HepSE hepatic failure: call rule not given here;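 as to HepSE jaundice: Jaundice-related hepatic side-effect score drawn from the training data of the DILIps (drug-induced liver injury prediction system); call rule not given here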;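 as to HepSE liver function tests abnormal: hepatic side effect score taken from the DILIps (drug-induced liver injury prediction system) training data, here covering abnormal liver function test findings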
# [2] = system: Hepatotoxicity; remark: listed apart in the source;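 as to HepSE cholecystitis: Cholecystitis-related hepatic side effect score drawn from the DILIps (drug-induced liver injury prediction) training data set; call rule not given here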;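 as to HepSE cholelithiasis: hepatic side effect score for cholelithiasis, drawn from the DILIps training data for predicting drug-induced liver injury; call rule not given here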;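 as to HepSE cirrhosis: cirrhosis hepatic side effect score taken from the DILIps (drug-induced liver injury prediction) training set; call rule not given here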;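 as to HepSE elevated liver function tests: hepatic side effect score for raised liver function tests, as recorded in the DILIps training set used for predicting drug-induced liver injury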; as to HepSE hepatic failure: call rule not given here;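 as to HepSE jaundice: Jaundice-related hepatic side-effect score drawn from the training data of the DILIps (drug-induced liver injury prediction system); call rule not given here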
# [3] = system: Hepatotoxicity; remark: listed apart in the source;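 as to HepSE cholecystitis: Cholecystitis-related hepatic side effect score drawn from the DILIps (drug-induced liver injury prediction) training data set; call rule not given here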;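 as to HepSE cholelithiasis: hepatic side effect score for cholelithiasis, drawn from the DILIps training data for predicting drug-induced liver injury; call rule not given here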;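 as to HepSE cirrhosis: cirrhosis hepatic side effect score taken from the DILIps (drug-induced liver injury prediction) training set; call rule not given here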;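 as to HepSE elevated liver function tests: hepatic side effect score for raised liver function tests, as recorded in the DILIps training set used for predicting drug-induced liver injury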; as to HepSE hepatic failure: call rule not given here;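 as to HepSE jaundice: Jaundice-related hepatic side-effect score drawn from the training data of the DILIps (drug-induced liver injury prediction system); call rule not given here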
# [4] = system: Hepatotoxicity; remark: listed apart in the source;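 as to HepSE cholecystitis: Cholecystitis-related hepatic side effect score drawn from the DILIps (drug-induced liver injury prediction) training data set; call rule not given here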;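 as to HepSE cholelithiasis: hepatic side effect score for cholelithiasis, drawn from the DILIps training data for predicting drug-induced liver injury; call rule not given here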;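 as to HepSE cirrhosis: cirrhosis hepatic side effect score taken from the DILIps (drug-induced liver injury prediction) training set; call rule not given here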;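 as to HepSE elevated liver function tests: hepatic side effect score for raised liver function tests, as recorded in the DILIps training set used for predicting drug-induced liver injury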; as to HepSE hepatic failure: call rule not given here;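 as to HepSE jaundice: Jaundice-related hepatic side-effect score drawn from the training data of the DILIps (drug-induced liver injury prediction system); call rule not given here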
# [5] = system: Hepatotoxicity; remark: listed apart in the source; as to HepSE hepatic failure: call rule not given here
# [6] = system: Hepatotoxicity; remark: listed apart in the source; as to HepSE hepatic failure: call rule not given here
# [7] = system: Hepatotoxicity; remark: listed apart in the source
# [8] = system: Hepatotoxicity; remark: listed apart in the source
# [9] = system: Hepatotoxicity; remark: listed apart in the source
# [10] = system: Hepatotoxicity; remark: listed apart in the source
# [11] = system: Hepatotoxicity; remark: listed apart in the source
# [12] = system: Hepatotoxicity; remark: listed apart in the source
# [13] = system: Hepatotoxicity; remark: listed apart in the source
# [14] = system: Hepatotoxicity; remark: listed apart in the source
structure (smiles),measurement,setting,value
Cc1nc2n(c(=O)c1CCN1CCC(c3noc4cc(F)ccc34)CC1)CCCC2O (stereo not drawn) [PALIPERIDONE],HepSE_cirrhosis,[1],0
same,HepSE_elevated liver function tests,[2],0
same,HepSE_cholecystitis,[3],0
same,HepSE_hepatic failure,[4],0
same,HepSE_cholelithiasis,[5],0
same,HepSE_jaundice,[6],0
same,HepSE_liver function tests abnormal,[7],0
same,HepSE_hepatic necrosis,[8],0
same,HepSE_Combined Scores,[9],0
same,HepSE_hepatitis,[10],0
same,HepSE_hepatomegaly,[11],0
same,HepSE_liver disease,[12],0
same,HepSE_bilirubinemia,[13],0
same,HepSE_liver fatty,[14],0
O=C1c2cccc3c2[C@H](CCC3)CN1[C@@H]1CN2CCC1CC2 [PALONOSETRON],HepSE_cirrhosis,[1],0
same,HepSE_elevated liver function tests,[2],0
same,HepSE_cholecystitis,[3],0
same,HepSE_hepatic failure,[4],0
same,HepSE_cholelithiasis,[5],0
same,HepSE_jaundice,[6],0
same,HepSE_liver function tests abnormal,[7],0
same,HepSE_hepatic necrosis,[8],0
same,HepSE_Combined Scores,[9],0
same,HepSE_hepatitis,[10],0
same,HepSE_hepatomegaly,[11],0
same,HepSE_liver disease,[12],0
same,HepSE_bilirubinemia,[13],0
same,HepSE_liver fatty,[14],0
NCCC(O)(P(=O)(O)O)P(=O)(O)O [PAMIDRONIC ACID],HepSE_cirrhosis,[1],0
same,HepSE_elevated liver function tests,[2],0
same,HepSE_cholecystitis,[3],0
same,HepSE_hepatic failure,[4],0
same,HepSE_cholelithiasis,[5],0
same,HepSE_jaundice,[6],0
same,HepSE_liver function tests abnormal,[7],1
same,HepSE_hepatic necrosis,[8],0
same,HepSE_Combined Scores,[9],1
same,HepSE_hepatitis,[10],0
same,HepSE_hepatomegaly,[11],0
same,HepSE_liver disease,[12],0
same,HepSE_bilirubinemia,[13],0
same,HepSE_liver fatty,[14],0
CC(=O)O[C@H]1C[C@@H]2CC[C@@H]3[C@H](CC[C@@]4(C)[C@H]3C[C@H]([N+]3(C)CCCCC3)[C@@H]4OC(C)=O)[C@@]2(C)C[C@@H]1[N+]1(C)CCCCC1 [PANCURONIUM],HepSE_cirrhosis,[1]; Liver,0
same,HepSE_elevated liver function tests,[2]; Liver,0
same,HepSE_cholecystitis,[3]; Liver,0
same,HepSE_hepatic failure,[4]; Liver,0
same,HepSE_cholelithiasis,[5]; Liver,0
same,HepSE_jaundice,[6]; Liver,0
same,HepSE_liver function tests abnormal,[7]; Liver,0
same,HepSE_hepatic necrosis,[8]; Liver,0
same,HepSE_Combined Scores,[9]; Liver,0
same,HepSE_hepatitis,[10]; Liver,0
same,HepSE_hepatomegaly,[11]; Liver,0
same,HepSE_liver disease,[12]; Liver,0
same,HepSE_bilirubinemia,[13]; Liver,0
same,HepSE_liver fatty,[14]; Liver,0
COc1ccnc(C[S+]([O-])c2nc3ccc(OC(F)F)cc3[nH]2)c1OC (stereo not drawn) [PANTOPRAZOLE],HepSE_cirrhosis,[1],0
same,HepSE_elevated liver function tests,[2],0
same,HepSE_cholecystitis,[3],1
same,HepSE_hepatic failure,[4],1
same,HepSE_cholelithiasis,[5],1
same,HepSE_jaundice,[6],1
same,HepSE_liver function tests abnormal,[7],1
same,HepSE_hepatic necrosis,[8],0
same,HepSE_Combined Scores,[9],7
same,HepSE_hepatitis,[10],1
same,HepSE_hepatomegaly,[11],0
same,HepSE_liver disease,[12],0
same,HepSE_bilirubinemia,[13],1
same,HepSE_liver fatty,[14],0
C[C@H](/C=C/[C@H](C)C(C)(C)O)[C@H]1CC[C@H]2/C(=C/C=C3C[C@@H](O)C[C@H](O)C3)CCC[C@]12C [PARICALCITOL],HepSE_cirrhosis,[1],0
same,HepSE_elevated liver function tests,[2],0
same,HepSE_cholecystitis,[3],0
same,HepSE_hepatic failure,[4],0
same,HepSE_cholelithiasis,[5],0
same,HepSE_jaundice,[6],0
same,HepSE_liver function tests abnormal,[7],0
same,HepSE_hepatic necrosis,[8],0
same,HepSE_Combined Scores,[9],0
same,HepSE_hepatitis,[10],0
same,HepSE_hepatomegaly,[11],0
same,HepSE_liver disease,[12],0
same,HepSE_bilirubinemia,[13],0
same,HepSE_liver fatty,[14],0
NC[C@@H]1O[C@H](O[C@H]2[C@@H](O)[C@H](O[C@@H]3[C@@H](O)[C@H](N)C[C@H](N)[C@H]3O[C@H]3O[C@H](CO)[C@@H](O)[C@H](O)[C@H]3N)O[C@@H]2CO)[C@H](N)[C@@H](O)[C@@H]1O [PAROMOMYCIN],HepSE_cirrhosis,[1],0
same,HepSE_elevated liver function tests,[2],0
same,HepSE_cholecystitis,[3],0
same,HepSE_hepatic failure,[4],0
same,HepSE_cholelithiasis,[5],0
same,HepSE_jaundice,[6],0
same,HepSE_liver function tests abnormal,[7],0
same,HepSE_hepatic necrosis,[8],0
same,HepSE_Combined Scores,[9],0
same,HepSE_hepatitis,[10],0
same,HepSE_hepatomegaly,[11],0
same,HepSE_liver disease,[12],0
same,HepSE_bilirubinemia,[13],0
same,HepSE_liver fatty,[14],0
Fc1ccc([C@@H]2CCNC[C@H]2COc2ccc3c(c2)OCO3)cc1 [PAROXETINE],HepSE_cirrhosis,[1],0
same,HepSE_elevated liver function tests,[2],1
same,HepSE_cholecystitis,[3],0
same,HepSE_hepatic failure,[4],1
same,HepSE_cholelithiasis,[5],1
same,HepSE_jaundice,[6],1
same,HepSE_liver function tests abnormal,[7],1
same,HepSE_hepatic necrosis,[8],1
same,HepSE_Combined Scores,[9],8
same,HepSE_hepatitis,[10],1
same,HepSE_hepatomegaly,[11],0
same,HepSE_liver disease,[12],0
same,HepSE_bilirubinemia,[13],1
same,HepSE_liver fatty,[14],0
Nc1nc2[nH]cc(CCc3ccc(C(=O)N[C@@H](CCC(=O)O)C(=O)O)cc3)c2c(=O)[nH]1 [PEMETREXED],HepSE_cirrhosis,[1],0
same,HepSE_elevated liver function tests,[2],0
same,HepSE_cholecystitis,[3],0
same,HepSE_hepatic failure,[4],0
same,HepSE_cholelithiasis,[5],0
same,HepSE_jaundice,[6],0
same,HepSE_liver function tests abnormal,[7],0
same,HepSE_hepatic necrosis,[8],0
same,HepSE_Combined Scores,[9],0
same,HepSE_hepatitis,[10],0
same,HepSE_hepatomegaly,[11],0
same,HepSE_liver disease,[12],0
same,HepSE_bilirubinemia,[13],0
same,HepSE_liver fatty,[14],0
NC1=NC(=O)C(c2ccccc2)O1 (stereo not drawn) [PEMOLINE],HepSE_cirrhosis,[1],0
same,HepSE_elevated liver function tests,[2],0
same,HepSE_cholecystitis,[3],0
same,HepSE_hepatic failure,[4],0
same,HepSE_cholelithiasis,[5],0
same,HepSE_jaundice,[6],1
same,HepSE_liver function tests abnormal,[7],0
same,HepSE_hepatic necrosis,[8],0
same,HepSE_Combined Scores,[9],2
same,HepSE_hepatitis,[10],1
same,HepSE_hepatomegaly,[11],0
same,HepSE_liver disease,[12],0
same,HepSE_bilirubinemia,[13],0
same,HepSE_liver fatty,[14],0
CC(C)(C)NC[C@H](O)COc1ccccc1C1CCCC1 [PENBUTOLOL],HepSE_cirrhosis,[1],0
same,HepSE_elevated liver function tests,[2],0
same,HepSE_cholecystitis,[3],0
same,HepSE_hepatic failure,[4],0
same,HepSE_cholelithiasis,[5],0
same,HepSE_jaundice,[6],0
same,HepSE_liver function tests abnormal,[7],0
same,HepSE_hepatic necrosis,[8],0
same,HepSE_Combined Scores,[9],0
same,HepSE_hepatitis,[10],0
same,HepSE_hepatomegaly,[11],0
same,HepSE_liver disease,[12],0
same,HepSE_bilirubinemia,[13],0
same,HepSE_liver fatty,[14],0
Nc1nc2c(ncn2CCC(CO)CO)c(=O)[nH]1 [PENCICLOVIR],HepSE_cirrhosis,[1],0
same,HepSE_elevated liver function tests,[2],0
same,HepSE_cholecystitis,[3],0
same,HepSE_hepatic failure,[4],0
same,HepSE_cholelithiasis,[5],0
same,HepSE_jaundice,[6],0
same,HepSE_liver function tests abnormal,[7],0
same,HepSE_hepatic necrosis,[8],0
same,HepSE_Combined Scores,[9],0
same,HepSE_hepatitis,[10],0
same,HepSE_hepatomegaly,[11],0
same,HepSE_liver disease,[12],0
same,HepSE_bilirubinemia,[13],0
same,HepSE_liver fatty,[14],0
CC(C)(S)[C@@H](N)C(=O)O [PENICILLAMINE],HepSE_cirrhosis,[1],0
same,HepSE_elevated liver function tests,[2],0
same,HepSE_cholecystitis,[3],0
same,HepSE_hepatic failure,[4],1
same,HepSE_cholelithiasis,[5],0
same,HepSE_jaundice,[6],0
same,HepSE_liver function tests abnormal,[7],0
same,HepSE_hepatic necrosis,[8],0
same,HepSE_Combined Scores,[9],1
same,HepSE_hepatitis,[10],0
same,HepSE_hepatomegaly,[11],0
same,HepSE_liver disease,[12],0
same,HepSE_bilirubinemia,[13],0
same,HepSE_liver fatty,[14],0
CC1(C)S[C@@H]2[C@H](NC(=O)Cc3ccccc3)C(=O)N2[C@H]1C(=O)O [PENICILLIN G],HepSE_cirrhosis,[1],0
same,HepSE_elevated liver function tests,[2],0
same,HepSE_cholecystitis,[3],0
same,HepSE_hepatic failure,[4],0
same,HepSE_cholelithiasis,[5],0
same,HepSE_jaundice,[6],0
same,HepSE_liver function tests abnormal,[7],0
same,HepSE_hepatic necrosis,[8],0
same,HepSE_Combined Scores,[9],0
same,HepSE_hepatitis,[10],0
same,HepSE_hepatomegaly,[11],0
same,HepSE_liver disease,[12],0
same,HepSE_bilirubinemia,[13],0
same,HepSE_liver fatty,[14],0
CC1(C)S[C@@H]2[C@H](NC(=O)COc3ccccc3)C(=O)N2[C@H]1C(=O)O [PENICILLIN V],HepSE_cirrhosis,[1],0
same,HepSE_elevated liver function tests,[2],0
same,HepSE_cholecystitis,[3],0
same,HepSE_hepatic failure,[4],0
same,HepSE_cholelithiasis,[5],0
same,HepSE_jaundice,[6],0
same,HepSE_liver function tests abnormal,[7],0
same,HepSE_hepatic necrosis,[8],0
same,HepSE_Combined Scores,[9],0
same,HepSE_hepatitis,[10],0
same,HepSE_hepatomegaly,[11],0
same,HepSE_liver disease,[12],0
same,HepSE_bilirubinemia,[13],0
same,HepSE_liver fatty,[14],0
CCCC(C)C1(CC)C(=O)NC(=O)NC1=O (stereo not drawn) [PENTOBARBITAL],HepSE_cirrhosis,[1],0
same,HepSE_elevated liver function tests,[2],0
same,HepSE_cholecystitis,[3],0
same,HepSE_hepatic failure,[4],0
same,HepSE_cholelithiasis,[5],0
same,HepSE_jaundice,[6],0
same,HepSE_liver function tests abnormal,[7],0
same,HepSE_hepatic necrosis,[8],0
same,HepSE_Combined Scores,[9],0
same,HepSE_hepatitis,[10],0
same,HepSE_hepatomegaly,[11],0
same,HepSE_liver disease,[12],0
same,HepSE_bilirubinemia,[13],0
same,HepSE_liver fatty,[14],0
OC[C@H]1O[C@@H](n2cnc3c2NC=NC[C@H]3O)C[C@@H]1O [PENTOSTATIN],HepSE_cirrhosis,[1],0
same,HepSE_elevated liver function tests,[2],1
same,HepSE_cholecystitis,[3],0
same,HepSE_hepatic failure,[4],0
same,HepSE_cholelithiasis,[5],0
same,HepSE_jaundice,[6],0
same,HepSE_liver function tests abnormal,[7],1
same,HepSE_hepatic necrosis,[8],0
same,HepSE_Combined Scores,[9],3
same,HepSE_hepatitis,[10],0
same,HepSE_hepatomegaly,[11],0
same,HepSE_liver disease,[12],1
same,HepSE_bilirubinemia,[13],0
same,HepSE_liver fatty,[14],0
